US10052340B2 (XIAMEN UNIVERSITY, priority 2012, dated 2018)

Assays:
wild-type C57BL/6J mice = assay: Mouse trial, wild-type mice fed with high-fat diet; settings: high-fat diet, 1.3 mg/kg i.p. daily, 14 days
Procedure: (§1) Wild-type C57BL/6J mice of 9-10 weeks old, and FXR gene deletion homozygous mice (FXR^−/−) and diabetes and obesity mouse model mice (KK-Ay) with the same background are used, fed with high-fat diet (Research Diets, D12492), with free access to water, in SPF grade animal room in experimental animal center, Xiamen University. […] Intraperitoneal injection is performed one time at 9 o'clock every morning, continued for 14 days, and the mice are measured for body weight and the food intake every two days. At the end of 14 days, the mice are provided with free access to water, and after being hungry for 6 h, the mouse body weights are measured, and the percentage of the final body weight relative to the initial body weight before the treatment of the injection trial indicates the change of mouse body weight. Then blood is sampled from the eye balls, and sera are obtained by separation. The components in serum are detected by the following kits respectively: sugar-oxidase method (Beijing Applygen); insulin (Crystal Chem. Inc., USA); total cholesterol and cholesterol in high and low density lipoprotein (Bioassay Systems, USA); triglyceride (Beijing Applygen and WAKO Chemicals Inc., Japan); free fatty acids (Bioassay Systems, USA); and aspartate aminotransferase and alanine aminotransferase (Biosino Bio-technology and Science Inc., Beijing, China). Mouse liver is taken, a part of which is fixed with paraformaldehyde, and embedded with paraffin, sectioned, and stained with hematoxylin and eosin, and a part of which is cryopreserved with liquid nitrogen for use in extracting RNA for measuring gene expression with fluorescence quantitative PCR.

KK-Ay mice = assay: Mouse trial, KK-Ay diabetes and obesity model mice fed with high-fat diet; assay type: in vivo; settings: for cholesterol in high density lipoprotein in serum / cholesterol in low density/very low density lipoprotein in serum / serum saccharides (glucose) level: 1.3 mg/kg i.p. daily, 14 days; for serum cholesterol / serum triglycerides: ivermectin/derivatives 1.3 mg/kg
Excerpt: In order to detect the efficacy of abamectin/avermectin, ivermectin and the derivative doramectin in the body of a diabetes and obesity mouse model, we choose diabetes and obesity mouse model mice, KK-Ay mice, as the experimental subject.

[1] = test system: FXR gene deletion homozygous mice (FXR−/−); assay: Mouse trial, FXR knockout mice fed with high-fat diet; assay type: in vivo; settings: 1.3 mg/kg i.p. daily, 14 days
Procedure: as §1

[2] = i.p. daily 14 days, GW4064 30 mg/kg

SMILES	cholesterol level in high density lipoprotein (wild-type C57BL/6J mice)	cholesterol levels in low density and very low density lipoprotein (wild-type C57BL/6J mice)	serum cholesterol level (wild-type C57BL/6J mice)	serum glucose level (wild-type C57BL/6J mice)	serum triglyceride (Tg) level (wild-type C57BL/6J mice)	cholesterol in high density lipoprotein in serum (KK-Ay mice)	cholesterol in low density/very low density lipoprotein in serum (KK-Ay mice)	serum saccharides (glucose) level (KK-Ay mice)	serum cholesterol (KK-Ay mice; [2])	serum triglycerides (KK-Ay mice; [2])	serum cholesterol level [1]	serum glucose level [1]	serum free fatty acids (KK-Ay mice; i.p. daily 14 days, ivermectin 1.3 mg/kg, GW4064 30 mg/kg)
CCC(C)[C@H]1O[C@]2(C=C[C@@H]1C)C[C@@H]1C[C@@H](C/C=C(\C)[C@@H](O[C@H]3C[C@H](OC)[C@@H](O[C@H]4C[C@@H](OC)[C@H](O)[C@@H](C)O4)[C@H](C)O3)[C@@H](C)/C=C/C=C3\CO[C@@H]4[C@H](O)C(C)=C[C@@H](C(=O)O1)[C@]34O)O2 (stereo partly shown) [abamectin/avermectin]	significantly downregulated	downregulated	significantly decreases	significantly decreases	significantly decrease	significantly decrease	significantly decrease	significantly decrease	decreased	significantly decrease	–	–	–
CO[C@H]1C[C@H](O[C@H]2[C@H](C)O[C@@H](O[C@@H]3/C(C)=C/C[C@@H]4C[C@@H](C[C@]5(C=C[C@H](C)[C@@H](C6CCCCC6)O5)O4)OC(=O)[C@@H]4C=C(C)[C@@H](O)[C@H]5OC/C(=C\C=C\[C@@H]3C)[C@]54O)C[C@@H]2OC)O[C@@H](C)[C@@H]1O [doramectin]	significantly downregulated	downregulated	significantly decreases	significantly decreases	significantly decrease	significantly decrease	significantly decrease	significantly decrease	decreased	significantly decrease	not producing any significant change	not producing any significant change	–
CC(C)c1onc(-c2c(Cl)cccc2Cl)c1COc1ccc(/C=C/c2cccc(C(=O)O)c2)c(Cl)c1 [GW4064]	–	–	–	–	–	–	–	–	significantly decrease	significantly decrease	–	–	significantly decrease
